Data taken from ChEMBL document CHEMBL1156553, “Prenylated dihydrochalcones from Boronia bipinnata that inhibit the malarial parasite enzyme target hemoglobinase II” (J Nat Prod, 2008).

test: Inhibition of recombinant hemoglobinase 2

IC50 [µM]	SMILES
0.003	CC(C)CC(=O)N[C@H](C(=O)N[C@H](C(=O)N[C@@H](CC(C)C)[C@@H](O)CC(=O)N[C@@H](C)C(=O)N[C@@H](CC(C)C)[C@@H](O)CC(=O)O)C(C)C)C(C)C [PEPSTATIN]
64	CC(C)=CCC/C(C)=C/CC/C(C)=C/Cc1cc(CCC(=O)c2c(O)cc(O)cc2O)ccc1O [BIPINNATONE A]
51	CC(C)=CCC/C(C)=C/Cc1cc(CCC(=O)c2c(O)cc(O)cc2O)ccc1O [BIPINNATONE B]
